Measurements: patent US20110105554A1, “MEANS FOR TREATING MYOSIN-RELATED DISEASES” (KINARIS BIOMEDICALS GMBH, priority 2007, published 2011)
“Also recorded” adds a separate entry of the source.

Tests used:
myosin-1 isoforms = assay: Selectivity for myosin isoforms (Example 3), myosin-1; format: biochemical
Excerpt: In this context, preferred selectivity means a more than 20-fold smaller IC50 value compared to fast skeletal muscle myosin-2 and other references myosins.

Dictyostelium myosin-1E = target: T1, Dictyostelium myosin-1E (Dictyostelium discoideum, UniProt Q03479); assay: Basal ATPase activity, Dictyostelium myosin-1E; format: biochemical; settings: read-out: concentration required for half-maximal inhibition of basal ATPase activity
T1 construct: comprising amino acids 1-698, 1-765, and 1-839 respectively; made in house
T1 sequence (Q03479 1-698): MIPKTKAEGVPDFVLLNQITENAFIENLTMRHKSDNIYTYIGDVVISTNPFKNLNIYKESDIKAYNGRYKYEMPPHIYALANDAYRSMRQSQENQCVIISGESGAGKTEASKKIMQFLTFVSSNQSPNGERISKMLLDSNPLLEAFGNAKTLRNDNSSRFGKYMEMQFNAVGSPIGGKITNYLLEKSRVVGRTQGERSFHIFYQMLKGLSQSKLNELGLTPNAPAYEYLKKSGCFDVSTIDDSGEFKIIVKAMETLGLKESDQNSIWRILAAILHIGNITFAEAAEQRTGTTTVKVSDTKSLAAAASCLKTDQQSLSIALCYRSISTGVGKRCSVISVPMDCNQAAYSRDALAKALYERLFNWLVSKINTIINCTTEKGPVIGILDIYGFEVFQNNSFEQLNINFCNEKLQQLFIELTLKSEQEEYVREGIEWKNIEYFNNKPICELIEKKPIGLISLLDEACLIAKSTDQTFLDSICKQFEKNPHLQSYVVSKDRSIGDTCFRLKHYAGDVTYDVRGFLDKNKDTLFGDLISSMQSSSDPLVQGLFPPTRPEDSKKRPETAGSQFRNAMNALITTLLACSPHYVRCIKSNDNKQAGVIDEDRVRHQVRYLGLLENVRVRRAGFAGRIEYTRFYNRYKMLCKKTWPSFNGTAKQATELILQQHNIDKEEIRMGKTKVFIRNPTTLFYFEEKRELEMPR
Excerpt: (§1) FIG. 18: KIN-68-inhibition of the basal ATPase activity of Dictyostelium myosin-1E and myosin-5b.

Dictyostelium myosin-5b = target: T2, Dictyostelium myosin-5b (Dictyostelium discoideum, UniProt P54697); assay: Basal ATPase activity, Dictyostelium myosin-5b; format: biochemical; settings: read-out: concentration required for half-maximal inhibition of basal ATPase activity
T2 construct: comprising amino acids 1-698, 1-765, and 1-839 respectively; made in house
T2 sequence (P54697 1-839): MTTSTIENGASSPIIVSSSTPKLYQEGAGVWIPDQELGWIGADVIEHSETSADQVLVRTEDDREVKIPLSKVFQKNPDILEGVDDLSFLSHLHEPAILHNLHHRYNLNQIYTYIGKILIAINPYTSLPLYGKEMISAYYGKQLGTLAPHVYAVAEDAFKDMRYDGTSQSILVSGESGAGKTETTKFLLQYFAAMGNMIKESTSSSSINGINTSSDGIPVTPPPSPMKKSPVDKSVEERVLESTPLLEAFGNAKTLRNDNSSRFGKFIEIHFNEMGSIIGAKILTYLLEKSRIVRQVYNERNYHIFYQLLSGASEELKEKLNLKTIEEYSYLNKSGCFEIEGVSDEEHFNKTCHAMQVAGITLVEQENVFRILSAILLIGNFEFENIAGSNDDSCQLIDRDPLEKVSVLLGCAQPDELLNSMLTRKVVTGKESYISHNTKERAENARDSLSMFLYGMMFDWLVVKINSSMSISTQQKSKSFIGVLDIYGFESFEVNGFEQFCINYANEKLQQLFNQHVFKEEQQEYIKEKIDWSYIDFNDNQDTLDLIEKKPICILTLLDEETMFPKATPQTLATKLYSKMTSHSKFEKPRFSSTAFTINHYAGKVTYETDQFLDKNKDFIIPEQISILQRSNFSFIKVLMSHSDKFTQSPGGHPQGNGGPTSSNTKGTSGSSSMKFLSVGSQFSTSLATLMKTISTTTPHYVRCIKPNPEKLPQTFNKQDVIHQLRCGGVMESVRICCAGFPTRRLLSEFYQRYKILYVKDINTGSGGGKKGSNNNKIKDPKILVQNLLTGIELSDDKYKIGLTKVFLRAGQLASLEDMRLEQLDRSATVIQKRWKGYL
Excerpt: as §1

Dictyostelium myosin-2 [1] = target: T3, Dictyostelium myosin-2 (Dictyostelium discoideum, UniProt P08799, C312Y/S249N); assay: Actin-activated ATPase activity (NADH-coupled assay), Dictyostelium myosin-2; format: biochemical; settings: 30 μM actin; read-out: IC50, ATPase activity in the presence of actin
T3 construct: comprising amino acids 1-698, 1-765, and 1-839 respectively; made in house
Method: Based on the structure of the myosin-2 motor domain with bound PBP, we performed molecular modeling studies to elucidate the specificity of PBP-binding to myosins from different classes. […] To test the predictions from the modeling studies, we determined actin-activated ATPase activities in the presence of 0 to 150 μM PBP with rabbit skeletal myosin-2 heavy meromyosin (HMM), myosin-5a isolated from chicken brain, and recombinant Dictyostelium myosin class-1, 2 and 5 motor-domain constructs (FIG. 9a). […] The concentrations of PBP required for half-maximal inhibition of the different myosin motors was calculated from fitting the data to hyperbolae. […] To determine the extend to which PBP impairs the coupling between the actin- and nucleotide-binding sites of myosin, we measured the ATP turn-over rates of Dictyostelium myosin-2 and myosin-5b motor domain constructs over the range from 0 to 50 μM F-actin in the absence and presence of 25 μM PBP.
Values for the rate of maximum ATP turnover (kcat), the concentration of F-actin at which half-maximal activation is achieved (Kapp), and the apparent second order rate constant for actin binding (kcat/Kapp) were estimated from a fit of the data to a hyperbolic function. kcat/Kapp is a direct measure of the coupling efficiency between actin and nucleotide binding and can be determined from the initial slope at F-actin concentrations much smaller than Kapp. […] ATP turn-over rates of Dictyostelium myosin-2 (◯) and Dictyostelium myosin-5b (▪) at increasing F-actin concentrations in the absence (filled symbols) and presence (open symbols) of 25 μM pentabromopseudilin (FIG. 9b):
Protein preparation. Rabbit fast skeletal muscle heavy meromyosin (HMM) was prepared as described by Kron and Spudich^9. Motor domain constructs of myosin-1E, myosin-2, and myosin-5b from Dictyostelium discoideum comprising amino acids 1-698, 1-765, and 1-839 respectively, were prepared as described previouslyl^10-12. Myosin-5a heavy meromyosin from chicken brain was provided by Dr. T. Scholz (Hannover Medical School, Germany) and F-actin was prepared as described by Lehrer and Kerwar^13.
Steady-state kinetics. Basal and actin-activated Mg^2+-ATPase activities were measured with the NADH-coupled assay^19 in a buffer containing 25 mM HEPES, 25 mM KCl, and 4 mM MgCl2, 0.5 mM DTT at pH 7.0 in the presence of 1 mM ATP at 25° C. PBP was added to the reaction mixture in the absence of nucleotide and incubated for 20 minutes before the reaction was started by the addition of ATP. NADH oxidation was followed using the change in absorption at 340 nm in a Beckman DU-800 spectrophotometer.

Dictyostelium myosin-2 [2] = target: T4, Dictyostelium myosin-2 (Dictyostelium discoideum, UniProt P08799, C312Y/S249N); assay: Basal ATPase activity, Dictyostelium myosin-2; format: biochemical
T4 construct: comprising amino acids 1-698, 1-765, and 1-839 respectively; made in house
T4 sequence (P08799 1-765 S249N/C312Y): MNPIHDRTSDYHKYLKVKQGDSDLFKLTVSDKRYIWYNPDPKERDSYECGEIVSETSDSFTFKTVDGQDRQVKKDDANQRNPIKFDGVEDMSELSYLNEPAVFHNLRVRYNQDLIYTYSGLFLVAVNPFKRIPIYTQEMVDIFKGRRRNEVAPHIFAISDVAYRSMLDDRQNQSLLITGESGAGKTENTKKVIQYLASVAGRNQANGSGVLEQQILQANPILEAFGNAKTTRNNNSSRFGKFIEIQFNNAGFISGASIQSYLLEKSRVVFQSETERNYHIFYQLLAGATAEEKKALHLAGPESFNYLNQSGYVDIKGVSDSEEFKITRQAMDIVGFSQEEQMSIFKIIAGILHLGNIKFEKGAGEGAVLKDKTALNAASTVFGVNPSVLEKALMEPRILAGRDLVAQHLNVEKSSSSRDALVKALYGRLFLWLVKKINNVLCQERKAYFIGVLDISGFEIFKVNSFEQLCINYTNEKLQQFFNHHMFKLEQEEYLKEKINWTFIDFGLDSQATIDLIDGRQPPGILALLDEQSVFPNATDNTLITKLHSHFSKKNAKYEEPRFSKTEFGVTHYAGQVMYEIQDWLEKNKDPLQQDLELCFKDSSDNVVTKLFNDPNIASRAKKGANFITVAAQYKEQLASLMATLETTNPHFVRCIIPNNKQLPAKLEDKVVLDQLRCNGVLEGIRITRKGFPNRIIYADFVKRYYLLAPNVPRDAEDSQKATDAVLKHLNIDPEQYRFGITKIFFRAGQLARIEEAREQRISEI
Method: (a) Concentrations of […] in the range from 1 to 50 μM activate the basal ATPase activity of Dictyostelium myosin-2 with an apparent half maximum activation constant AC50 of 18 μM. At concentrations of KIN-74>50 μM the basal ATPase activity of Dictyostelium myosin-2 is inhibited with IC50=90 μM.
Compounds KIN-74, KIN-77 are activators of myosin-2 function. KIN-74 activates the ATPase activity of Dictyostelium myosin-2 in the absence of actin. ATPase activity is uncoupled from motor activity in this situation. The apparent half-maximum activation constant AC50 corresponds to 18 μM. Uncouplers have potential applications in inhibiting the overcontraction and overextension of cardiac muscles without being accompanied with a cardioinhibitory action. Therefore, compounds derived from KIN-74 have potential applications in the treatment of acute myocardial infarction helping to prevent the necrosis of cardiac muscles.

in vitro = settings: human
Method: (§2) Cytotoxicity may be assayed by determining the cellular uptake of neutral red. Only living cells are capable of neutral red uptake via an active transport mechanism. For an exemplary workflow of a cytotoxicity assay, see FIG. 16.
(§3) FIG. 16: Cytotoxicity assay.
(§4) FIG. 22: Cytotoxic testing of KIN-compounds by neutral red uptake assays. (a) human hepatocyte carcinoma cells (Hep G2) were exposed to KIN-43 for 4 h in the in presence of 1% FBS.
(§5) We are using a library of common organic molecules and functional groups and are applying an empirical force field description of the nonbonding interactions between a ligand and the binding site in order to build up de novo compounds with spatial and electrostatic properties complementary to the allosteric binding site.

[3] = test system: human hepatocyte carcinoma cells (Hep G2); assay: in vitro
Method: as §2, §3, §4, §5

Plasmodium sporozoites = assay: Plasmodium sporozoite motility (in vitro imaging); format: cell-based
Excerpt: FIG. 20: (a) Plasmodium sporozoites adopt motility states, shown in the photos from the left to the right, attached, waving, clockwise (CW), and counterclockwise (CCW). In the absence of inhibitors sporozoites preferably move CW and CCW at 0.97 μm/s and 1.13 μm/s.
Plasmodium sporozoites are moving at very low speed in the salivary glands of infected mosquitoes but are moving at high speed (2 μm/s) upon transmission into the vertebrate host. […] We followed single parasites using in vitro imaging approaches in combination with our bioactive compounds and discovered some intriguing features of sporozoite motility. Under normal conditions sporozoites move in circles, either counterclockwise or clockwise. Two other states of attachment and waving are less populated.

[4] = Development toxicity testing on medaka embryos; settings: medaka, in vivo
Method: (§6) (a) KIN-43 in concentrations between 0.5 μM and 100 μM were incubated for 48 h with 20 medaka embryos per concentration. […] (b) Light microscopy image of embryo after 48 h in the absence of KIN-43.
as §5

medaka embryos = assay: Development toxicity testing on medaka embryos
Method: as §6, §5

Plasmodium merozoites = assay: In vitro growth assay, blood stages of malaria; format: cell-based; settings: 25 μM

## Oc1c(Cl)cc(Cl)cc1-c1[nH]c(Cl)c(Cl)c1Cl [KIN-68, pentachloropseudilin]
myosin-1 isoforms
  preferred selectivity: fold smaller IC50 compared to fast skeletal muscle myosin-2 and other reference myosins: more than 20 fold
Dictyostelium myosin-1E
  IC50: 55.8 µM
Dictyostelium myosin-5b
  IC50: 105 µM

## Oc1c(F)cc(F)cc1-c1[nH]c(Br)c(Br)c1Br [KIN-74, 2,3,4-tribromo-5 (1′ hydroxy, 2′,4′-difluorophenyl)pyrrole]
Dictyostelium myosin-2 [1]
  IC50: 88.8 µM
Dictyostelium myosin-2 [2]; absence of actin, 1 to 50 μM, read-out: apparent half maximum activation constant AC50, basal ATPase activity
  AC50: 18 µM
Dictyostelium myosin-2 [2]; at concentrations >50 μM
  IC50: 90 µM

## Oc1cc(F)c(F)c2c1[nH]c1ccc(F)cc12 [KIN-93]
In vitro
  CC50 at 4 h: > 50 µM
[3]
  neutral red uptake experiments, defects: do not reveal any defects
Plasmodium sporozoites
  general cytotoxicity for erythrocytes or for Plasmodium sporozoites: No general cytotoxicity
Plasmodium sporozoites; 10 μM
  gliding velocity compared with control parasites: only half as fast
  motility states of the sporozoite population: switched the population to attached and waving states; also recorded: strongly reduced
Plasmodium sporozoites; 0.97 μm/s without inhibitor
  velocity of clockwise (CW) motility: 0.58 μm/s
Plasmodium sporozoites; 1.13 μm/s without inhibitor
  velocity of counterclockwise (CCW) motility: 0.59 μm/s
[4]
  LC50 at 48 h: > 50 µM
Medaka embryos; below 50.0 μM
  lethal effect on medaka embryos: no lethal effect
Medaka embryos; in vivo
  embryonic development: not impaired
Plasmodium merozoites
  effect on the blood stages of malaria: reducing the number of Plasmodium merozoites
